Experimental findings from the C3SDB collision cross section collection are described below.

Molecules are shown by their SMILES.

For data set [1] the following is noted: instrument: DT, stepped-field.
For data set [2] the following is noted: instrument: TW, calibrated with phosphatidylcholines (ESI+) and phosphatidylethanolamines (ESI-).
For data set [3] the following is noted: instrument: DT, single field, calibrated with Agilent tune mix (Agilent).
For data set [4] the following is noted: [M+H]+; instrument: DT; stepped-field.
For data set [5] the following is noted: [M-H]-; instrument: DT; stepped-field.
For data set [6] the following is noted: instrument: TW, calibrated with phosphatidylcholines (ESI+) and phosphatidylethanolamines (ESI-). The source holds these as a separate data set.
The conditions of data set [7]: instrument: DT, single field, calibrated with Agilent tune mix (Agilent). This is another data set of the same source.

With `CC[C@H](C)[C@H](NC(=O)[C@H](Cc1ccc(O)cc1)NC(=O)[C@@H](NC(=O)[C@H](CCCN=C(N)N)NC(=O)[C@@H](N)CC(=O)O)C(C)C)C(=O)N[C@@H](Cc1cnc[nH]1)C(=O)N1CCC[C@H]1C(=O)N[C@@H](Cc1ccccc1)C(=O)N[C@@H](Cc1cnc[nH]1)C(=O)N[C@@H](CC(C)C)C(=O)O` [Angiotensin I], the “collision cross section (N2)” value in data set [1] ([M+2H]2+) came to 387.3 Å²; in data set [1] ([M+3H]3+), 474.71 Å²; in data set [1] ([M+4H]4+), 549.24 Å²; in data set [1] ([M+H]+), 357.31 Å².
Consider `CCCCC/C=C\C/C=C\C/C=C\C/C=C\CCCC(=O)O` [Arachidonic acid], for which the “collision cross section (N2)” value in data set [1] ([M-H]-) is listed as 183.66 Å².
For the molecule `NC(N)=NCCC[C@H](NC(=O)[C@H](Cc1ccccc1)NC(=O)[C@@H]1CCCN1C(=O)[C@H](CO)NC(=O)[C@H](Cc1ccccc1)NC(=O)CNC(=O)[C@@H]1CCCN1C(=O)[C@@H]1CCCN1C(=O)[C@@H](N)CCCN=C(N)N)C(=O)O` [Bradykinin], the “collision cross section (N2)” value in data set [1] ([M+2H]2+) came out at 343.33 Å²; in data set [1] ([M+3H]3+), 447.61 Å²; in data set [1] ([M+H]+) it was 315.25 Å².
As to `CCCCCCCCCCCCCCC(=O)OC[C@H](CO[C@@H]1O[C@H](CO[C@H]2O[C@H](CO)[C@H](O)C(O)C2O)[C@H](O)C(O)C1O)OC(=O)CCCCCCCCCCCCCC` (stereo not given in full) [DGDG(30:0)], the entries for the “collision cross section (N2)” value in data set [2] ([M+NH4]+) and in data set [2] ([M+Na]+) were 302.4 Å² and 299.6 Å², respectively.
For `CCCCCCCCCCCCC=CCC(=O)OC[C@H](CO[C@@H]1O[C@H](CO[C@H]2O[C@H](CO)[C@H](O)C(O)C2O)[C@H](O)C(O)C1O)OC(=O)CC=CCCCCCCCCCCCC` (stereo not given in full) [DGDG(32:2)] the same measures were 302.2 Å² and 298 Å².
For `CCCCCCCCCCCCCCCCC(=O)OC[C@H](CO[C@@H]1O[C@H](CO[C@H]2O[C@H](CO)[C@H](O)C(O)C2O)[C@H](O)C(O)C1O)OC(=O)CCCCCCCCCCCCCCCC` (stereo not given in full) [DGDG(34:0)] the same measures were 314.2 Å² and 311.8 Å².
For the molecule `CCCCCCCCCCCCCCC=CCC(=O)OC[C@H](CO[C@@H]1O[C@H](CO[C@H]2O[C@H](CO)[C@H](O)C(O)C2O)[C@H](O)C(O)C1O)OC(=O)CC=CCCCCCCCCCCCCCC` (stereo not given in full) [DGDG(36:2)], the results for the “collision cross section (N2)” value in data set [2] ([M+K]+), in data set [2] ([M+NH4]+) and in data set [2] ([M+Na]+) were 315.3 Å², 315.2 Å² and 312.4 Å², respectively.
Take `CCCCCCCCCCCCCCCCCCCC(=O)O` [Eicosanoic acid]: in data set [1] ([M-H]-), the “collision cross section (N2)” value turned out to be 186.17 Å².
`N[C@@H](CSSC[C@H](N)C(=O)O)C(=O)O` [L-Cystine]: the “collision cross section (N2)” value in data set [1] ([M+H]+) was determined as 150.08 Å²; in data set [1] ([M+Na]+) it was 151.81 Å²; in data set [1] ([M-H]-) it was 144.39 Å²; in data set [3] ([M+H]+) it was 149.4 Å².
As to `N[C@@H](CCC(=O)O)C(=O)O` [L-Glutamate], the “collision cross section (N2)” value in data set [1] ([M-H]-) turned out to be 125.65 Å².
Turning to `N[C@@H](Cc1cnc[nH]1)C(=O)O` [L-Histidine], the “collision cross section (N2)” value in data set [1] ([M+H]+) is given as 132.74 Å²; in data set [1] ([M+Na]+), 135.48 Å²; in data set [1] ([M-H]-), 130.01 Å²; in data set [4], 132.41 Å²; in data set [3] ([M+H]+), 131.9 Å².
As to `CC(C)C[C@H](N)C(=O)O` [L-Leucine], the figures for the “collision cross section (N2)” value in data set [1] ([M+H]+), in data set [1] ([M-H]-) and in data set [4] were 135.56 Å², 132.51 Å² and 135.16 Å², respectively.
For `O=C(O)[C@@H]1CCCN1` [L-Proline], the “collision cross section (N2)” value is given as 126.22 Å² in data set [1] ([M+H]+), 126.48 Å² in data set [4] and 125.1 Å² in data set [3] ([M+H]+).
In the case of `CCCCCCCCCCCCCCCCCCCCCCCC(=O)O` [Lignoceric acid], the “collision cross section (N2)” value in data set [1] ([M-H]-) amounted to 201.11 Å².
Consider `CCCCC/C=C\C/C=C\CCCCCCCC(=O)O` [Linoleic acid], for which the entries for the “collision cross section (N2)” value in data set [1] ([M-H]-) and in data set [3] ([M-H]-) were 175.69 Å² and 173.24 Å², respectively.
As for `CC/C=C\C/C=C\C/C=C\CCCCCCCC(=O)O` [Linolenic acid], the “collision cross section (N2)” value in data set [1] ([M-H]-) is 174.88 Å².
In the case of `CCCCCCCCCCCCCCCCCC(=O)OC(COC(=O)CCCCCCCCCCCCCC)COP(=O)([O-])OCC(O)COC(=O)C(N)CCCC[NH3+]` (stereo not given) [LysPG(33:0)], the “collision cross section (N2)” value in data set [2] ([M+H]+) was found to be 299.8 Å².
Same read-out and setting: next, `CCCCCC/C=C/CCCCCCCCCC(=O)OCC(COP(=O)([O-])OCC(O)COC(=O)C(N)CCCC[NH3+])OC(=O)CCCCCCCCCCCCCCC` (stereo not given) [LysPG(34:1)]: 299.6 Å².
Turning to `CCCCCC/C=C\CCCCCCCCCC(=O)OCC(COP(=O)([O-])OCC(O)COC(=O)C(N)CCCC[NH3+])OC(=O)CCCCCCCC/C=C\CCCCCC` (stereo not given) [LysPG(35:2)], the “collision cross section (N2)” value in data set [2] ([M+H]+) is given as 300.8 Å².
On the same count and under the same terms, next, `CCCCCCCCCCCCCCCCCCCCC(=O)OC(COC(=O)CCCCCCCCCCCCCC)COP(=O)([O-])OCC(O)COC(=O)C(N)CCCC[NH3+]` (stereo not given) [LysPG(36:0)]: 308.7 Å².
Turning to `CCCCCC/C=C\CCCCCCCCCC(=O)OCC(COP(=O)([O-])OCC(O)COC(=O)C(N)CCCC[NH3+])OC(=O)CCCCCCCCC/C=C\CCCCCC` (stereo not given) [LysPG(36:2)], in data set [2] ([M+H]+), the “collision cross section (N2)” value is 302.8 Å².
Regarding `CC/C=C\C/C=C\C/C=C\CCCCCCCC(=O)OC[C@H](CO[C@@H]1O[C@H](CO)[C@H](O)C(O)C1O)OC(=O)CCCCC/C=C\C/C=C\C/C=C\CC` (stereo not given in full) [MGDG(16:3/18:3)], the “collision cross section (N2)” value was 280.3 Å² in data set [2] ([M+CH3COO]-); 273.7 Å² in data set [2] ([M+Cl]-); 273.6 Å² in data set [2] ([M+K]+); 273.1 Å² in data set [2] ([M+Na]+); 269.9 Å² in data set [2] ([M-H]-).
Regarding `CCCCCCCCCC/C=C\CCCCCCCCCC(=O)O[C@H](COC(=O)CCCCCCCCCCC)COP(=O)(O)O` [PA(16:0/18:1)], the results for the “collision cross section (N2)” value in data set [2] ([M-H]-) and in data set [5] were 256.3 Å² and 259.2 Å², respectively.
In the case of `CCCCCCCCCCCCCCCCCC(=O)O[C@H](COC(=O)CCCCCCCCCCCC)COP(=O)(O)O` [PA(31:0)], the “collision cross section (N2)” value in data set [2] ([M-H]-) was found to be 248.2 Å².
On the same count and under the same terms, next, `CCCC/C=C\CCCCCCCC(=O)O[C@H](COC(=O)CCCCCCCCCCCCC)COP(=O)(O)OC[C@@H](O)CO` [PG(28:1)]: 251.2 Å².
Consider `CCCCCCCCCCCCCCCCCCCC(=O)OC[C@H](COP(=O)(O)OC[C@@H](O)CO)OC(=O)CCCCCCCCCCCCC` [PG(34:0)], for which the “collision cross section (N2)” value in data set [2] ([M-H]-) turned out to be 270.8 Å²; in data set [5], 277.6 Å²; in data set [6] ([M+Na]+), 282.2 Å²; in data set [6] ([M-H]-), 269 Å².
For `CCCCCCCCCC/C=C\CCCCCCCCCC(=O)O[C@H](COC(=O)CCCCCCCCCCC)COP(=O)(O)OC[C@@H](O)CO` [PG(34:1)], the “collision cross section (N2)” value in data set [2] ([M-H]-) worked out at 269.9 Å²; in data set [7] ([M+H]+) it was 286.8 Å²; in data set [7] ([M+NH4]+), 287.3 Å²; in data set [7] ([M-H]-), 270.2 Å²; in data set [6] ([M+Na]+) it was 281.1 Å²; in data set [6] ([M-H]-), 268.9 Å².
Take `CCCCCCCCCCCCCCCCCCCCC(=O)OC[C@H](COP(=O)(O)OC[C@@H](O)CO)OC(=O)CCCCCCCCCCCCCC` [PG(36:0)]: in data set [2] ([M-H]-), the “collision cross section (N2)” value was found to be 277.9 Å².
The same measure, in the same setting: under `CCCC/C=C\CCCCCCCC(=O)O[C@H](CO/C=C\CCCCCCCCCCCCC)COP(=O)(O)OC[C@@H](O)CO` [PG(p29:1)] stands 252.2 Å².
The same measure, in the same setting: under `CCCC/C=C\CCCCCCCC(=O)O[C@H](CO/C=C\CCCCCCCCCCCCCC)COP(=O)(O)OC[C@@H](O)CO` [PG(p30:1)] stands 255.3 Å²; under `CCCC/C=C\CCCCCCCC(=O)O[C@H](CO/C=C\CCCCCCCCCCCCCCCC)COP(=O)(O)OC[C@@H](O)CO` [PG(p32:1)], 262.1 Å².
Still for that read-out and setting: under `CCCC/C=C\C/C=C\CCCCCCCC(=O)O[C@H](CO/C=C\CCCCCCCCCCCCCC)COP(=O)(O)OC[C@@H](O)CO` [PG(p33:2)] stands 263.4 Å².
For the molecule `CCCCCC/C=C\CCCCCCCC(=O)O` [Palmitoleic acid], the “collision cross section (N2)” value in data set [1] ([M-H]-) was 167.95 Å².
In the case of `Cc1ncc(COP(=O)(O)O)c(C=O)c1O` [Pyridoxal Phosphate], the results for the “collision cross section (N2)” value in data set [1] ([M+H]+), in data set [1] ([M+Na]+) and in data set [1] ([M-H]-) were 151.94 Å², 161.4 Å² and 150.8 Å², respectively.
Turning to `CSCC[C@H](NC(=O)[C@H](CC(C)C)NC(=O)CNC(=O)[C@H](Cc1ccccc1)NC(=O)[C@H](Cc1ccccc1)NC(=O)[C@H](CCC(N)=O)NC(=O)[C@H](CCC(N)=O)NC(=O)[C@@H]1CCCN1C(=O)[C@H](CCCCN)NC(=O)[C@@H]1CCCN1C(=O)[C@@H](N)CCCN=C(N)N)C(N)=O` [Substance P], the figures for the “collision cross section (N2)” value in data set [1] ([M+2H]2+), in data set [1] ([M+3H]3+) and in data set [1] ([M+H]+) were 399.88 Å², 495.74 Å² and 362.51 Å², respectively.
On to `O=c1[nH]c(=O)c2[nH]c(=O)[nH]c2[nH]1` [Uric acid], for which, in data set [1] ([M-H]-), the “collision cross section (N2)” value worked out at 126.93 Å².
